Values joined by “and” are separate entries in the source; they are usually repeats but may differ in a detail not shown here. Identical values can stand only once. “Also recorded” adds a separate entry of the source. Like-named read-outs stand apart in the source and are kept apart here.
Legend:
[1] = tested on: B16.F10 cells; assay: CellTiter-Glo Luminescent Cell Viability Assay (cytotoxicity of nanoparticles); type: cell-based; conditions: 24, 48 and 72 hours of incubation
Description: B16.F10 cells, grown to 85-90% confluency in 150 cm^2 flasks (passage <30), were resuspended in media (MEM-alpha, 10% HI-FBS, 1× antibiotic-antimycotic) and added to 96-well opaque-clear bottom plates at a concentration of 1500 cells/well in 200 μL/well. The cells were incubated at 37° C. with 5% CO2 for 24 hours. The following day, serial dilutions of 2× concentrated particles and 2× concentrated free drug were made in 12-well reservoirs with media to specified concentrations. The media in the plates was replaced with 100 μL of fresh media and 100 μL of the corresponding serially diluted drug. Three sets of plates were prepared with duplicate treatments. Following 24, 48 and 72 hours of incubation at 37° C. with 5% CO2, the media in the plates was replaced with 100 μL of fresh media and 100 μL of CTG solution, and then incubated for 5 minutes on a plate shaker at room temperature set to 450 rpm and allowed to rest for 15 minutes. Viable cells were measured by luminescence using a microtiter plate reader. The data was plotted as viability vs. concentration and standardized to untreated cells.

[2] = Tolerability in normal non-tumor-bearing mice (body weight, CBC, serum chemistry, ataxia, sciatic nerve; Example 47); type: in vivo, C57BL/6 mice; conditions: for ataxia: n=5
Description: Treatments were administered intravenously on a q7dx2 schedule, i.e., two treatments seven days apart (the first treatment was on Day one). The study ended on Day 14, six days after the 2nd treatment. Blood was collected for complete blood count (CBC) and serum chemistry. Leg muscles were collected so that nerve degeneration could be assessed from the sciatic nerve.

[3] = mouse, in vivo
Description: The stock solution was diluted further with PBS to 0.6, 1.5, 3, 4.5 and 6 mg/mL (for a corresponding dose of 6, 15, 30, 45 and 60 mg/kg) so that all the groups received the same amount of ethanol, polysorbate 80, water and PBS. […] 5) PEGylated O-acetyl-5050-PLGA nanoparticle vehicle at the highest concentration of 6 mg/mL.
The treatments were administered IV into the tail vein at a dose volume of 10 mL/kg, beginning on post-implantation Day 5, when the mean tumor volume was 55 mm^3. The treatments were administered 4 times, on Days 5, 8, 12 and 15 (biweekly×4 injections). On Day 17 post-tumor implantation, mice were euthanized by CO2 inhalation according to the procedure guideline. Blood was collected by cardiac puncture and put into ethylenediaminetetraacetic acid (EDTA) or serum separation blood collection tubes. Whole blood was analyzed on the day of collection for CBC analyses. After the blood clotted and was centrifuged, serum was frozen immediately on dry ice for serum chemistry analyses.
Tolerability was determined by changes in body weight, expressed as a percent of the initial body weight on post-implantation Day 5. […] Other indices of toxicity, complete blood count (CBC) and serum chemistry were determined from blood collected from animals that were euthanized on Day 17 by CO2 inhalation, according to the procedure guideline.

[4] = tested on: MDA-MB-435 cells; assay: In vivo efficacy, MDA-MB-435 melanoma human xenograft model (Example 46); design: species or system CD-1 nude mice; conditions: as of Day 76, weekly x two injections
Description: MDA-MB-435 cells were grown in culture to confluency in RPMI medium containing 10% FBS and 1% penicillin/streptomycin and then resuspended in RPMI (passage 4) for implantation into mice. A volume of 0.1 mL containing 4.0×10^6 cells MDA-MB-435 cells were implanted into the mammary gland of female CD-1 nude mice on Day 1.

[5] = tested on: B16.F10 cells; assay: Efficacy in B16.F10 murine melanoma model (Example 43); type: in vivo, C57BL/6 mice; conditions: q4dq3dx3 (three injections over 2 weeks), 15 mg/kg IV
Description: Refer to table for detailed description of formulations.
Tumor volume was calculated with the following equation: (width×width×length)/2 mm^3.

[6] = Body weight and ataxia in MDA-MB-435 tumor-bearing mice (Example 46); conditions: for ataxia: weekly x two injections
Description: The treatments were administered IV into the tail vein at the dose volumes stated above, beginning on post-implantation Day 21, when the mean tumor volume was 150 mm^3 or, for one group, on Day 37, when the mean tumor volume for that group was 433 mm^3.

[7] = Body weight changes in A2780 tumor-bearing mice (Example 42); type: in vivo, CD-1 nude mice; conditions: for % of initial body weight: Day 36
Description: This formulation was made within 30 minutes of administration to mice.
The treatments were administered 2 times, on Day 8 and Day 15 (weekly×2 injections) for n=8 mice per group. […] On Day 50, the study was ended for all remaining mice. When removed from the study, mice were euthanized by CO2 inhalation.

[8] = Tolerability (body weight) in B16.F10 murine melanoma model (Example 43); type: in vivo, C57BL/6 mice
[9] = Body weight and ataxia in SK-OV-3 tumor-bearing mice (Example 45); type: in vivo, CD-1 nude mice; conditions: weekly x two injections
[10] = Body weight in HCT-116 tumor bearing mice (Example 44); type: in vivo, CD-1 nude mice; conditions: 30 mg/kg IV
Description: The treatments were administered IV into the tail vein at the respective dose volumes (refer to previous paragraph), beginning on post-implantation Day 13, when the mean tumor volume was 131 mm^3.

## doxorubicin 5050 PLGA amide
[1]
  growth of B16.F10 cells (viability): inhibited the growth of B16.F10 cells in a dose and time dependent manner

## CC(=O)O[C@@]12CO[C@@H]1C[C@H](O)[C@@]1(C)C(=O)[C@H](O)C3=C(C)[C@@H](OC(=O)[C@H](O)[C@@H](NC(=O)OC(C)(C)C)c4ccccc4)C[C@@](O)([C@@H](OC(=O)c4ccccc4)[C@H]21)C3(C)C [Free docetaxel, docetaxel]
[2]; 30 mg/kg IV q7dx2
  body weight more than the initial on Day 14: 3%
  ataxia: 0%
[2]; 45 mg/kg IV q7dx2
  body weight more than the initial on Day 14: 2%
  ataxia: 20%
[2]; 60 mg/kg IV q7dx2, Day 14
  Neutrophil mean: 470 cells/μL
  weight lost after the second treatment, by the end of the study: 19%
[2]; 60 mg/kg IV q7dx2
  ataxia: 100%
[2]; q7dx2, Day 14
  effect on serum chemistry parameters: did not affect any serum chemistry parameter at doses up to 60 mg/kg
[2]; q7dx2, n=5/group, dose in the value
  mice observed to develop ataxia: no mice in the 30 mg/kg group were seen to develop ataxia or any overt signs of nerve damage; also recorded: One mouse in the 45 mg/kg group was observed to develop ataxia on Day 14; also recorded: Five out of five mice in the 60 mg/kg group was observed to develop ataxia
[3]
  effect on serum chemistry parameters: did not affect any serum chemistry parameter at doses up to 30 mg/kg
[4]; listed as docetaxel
  TGI compared with PEGylated nanoparticles: docetaxel at a dose of 30 mg/kg is equivalent to PEGylated nanoparticles at a dose of 60 mg/kg
[4]; listed as free docetaxel
  TGI compared with PEGylated nanoparticles: the treatment at a dose of 15 mg/kg resulted in the same TGI for free docetaxel and PEGylated nanoparticles; also recorded: At a dose of 30 mg/kg, the TGI for free docetaxel was greater than that for PEGylated nanoparticles; also recorded: At a dose of 60 mg/kg, free docetaxel was equivalent to PEGylated nanoparticles until the free drug group was removed from the study
[5]
  Tumor growth inhibition (TGI): 90%
[6]; 30 mg/kg IV
  ataxia: did not cause ataxia
[6]; 60 mg/kg IV, Days 21 and 28 (mean tumor size 150 mm^3 at start)
  body weight loss: greater than 20%
[6]; 60 mg/kg IV, listed as docetaxel
  ataxia: developed ataxia
[6]; 60 mg/kg IV, listed as free docetaxel
  ataxia: Ataxia was observed four days after the second treatment
[7]; 15 mg/kg IV weekly x 2
  Maximum body weight loss: 7%
[7]; 15 mg/kg
  % of initial body weight: 113±11%
[7]; 30 mg/kg IV weekly x 2
  Maximum body weight loss: 10%
[7]; 30 mg/kg
  % of initial body weight: 105±9%
[8]; q3dq4dx3, 15 mg/kg IV, listed as Docetaxel
  Maximum body weight loss: 11% and 12%
[8]; q4dq3dx3, 15 mg/kg IV
  Maximum body weight loss: 11%
[8]; q7dx3, 30 mg/kg IV
  Maximum body weight loss: 11%
[8]; q14dx2, 60 mg/kg IV, listed as Docetaxel
  Maximum body weight loss: 0%
[8]; q14dx2, 60 mg/kg IV, listed as docetaxel
  Maximum body weight loss: did not show any body weight loss
[8]; three times, once every week, 15 mg/kg (as worded)
  Maximum body weight loss: 11%
[9]; 30 mg/kg IV
  Maximum body weight loss: 13%
  ataxia: did not cause ataxia
[9]; 60 mg/kg IV
  body weight loss: greater than 20%
[10]
  Maximum body weight loss: 14%

## paclitaxel-5050 PLGA-O-acetyl
[1]
  growth of B16.F10 cells (viability): inhibited the growth of B16.F10 cells in a dose and time dependent manner

## docetaxel-5050 PLGA-O-acetyl
[1]
  growth of B16.F10 cells (viability): inhibited the growth of B16.F10 cells in a dose and time dependent manner

Source: US20140193510A1, “Polymer-Agent Conjugates, Particles, Compositions, and Related Methods of Use” (CERULEAN PHARMA INC., priority 2009, published 2014)
